Measured values from ChEMBL document CHEMBL1144438, “Dipeptidyl peptidase IV inhibitors derived from beta-aminoacylpiperidines bearing a fused thiazole, oxazole, isoxazole, or pyrazole” (Bioorg Med Chem Lett, 2005).
pIC50: −log10 of the molar value.

Experiments:
Dipeptidyl peptidase 9 = Dipeptidyl peptidase 9 (Homo sapiens, UniProt Q86TI2); assay: Inhibitory concentration against human dipeptidylpeptidase 9
Dipeptidyl peptidase 8 = Dipeptidyl peptidase 8 (Homo sapiens, UniProt Q6V1X1); assay: Inhibitory concentration against human dipeptidylpeptidase 8
Sequence of Dipeptidyl peptidase 8 (Q6V1X1 whole entry): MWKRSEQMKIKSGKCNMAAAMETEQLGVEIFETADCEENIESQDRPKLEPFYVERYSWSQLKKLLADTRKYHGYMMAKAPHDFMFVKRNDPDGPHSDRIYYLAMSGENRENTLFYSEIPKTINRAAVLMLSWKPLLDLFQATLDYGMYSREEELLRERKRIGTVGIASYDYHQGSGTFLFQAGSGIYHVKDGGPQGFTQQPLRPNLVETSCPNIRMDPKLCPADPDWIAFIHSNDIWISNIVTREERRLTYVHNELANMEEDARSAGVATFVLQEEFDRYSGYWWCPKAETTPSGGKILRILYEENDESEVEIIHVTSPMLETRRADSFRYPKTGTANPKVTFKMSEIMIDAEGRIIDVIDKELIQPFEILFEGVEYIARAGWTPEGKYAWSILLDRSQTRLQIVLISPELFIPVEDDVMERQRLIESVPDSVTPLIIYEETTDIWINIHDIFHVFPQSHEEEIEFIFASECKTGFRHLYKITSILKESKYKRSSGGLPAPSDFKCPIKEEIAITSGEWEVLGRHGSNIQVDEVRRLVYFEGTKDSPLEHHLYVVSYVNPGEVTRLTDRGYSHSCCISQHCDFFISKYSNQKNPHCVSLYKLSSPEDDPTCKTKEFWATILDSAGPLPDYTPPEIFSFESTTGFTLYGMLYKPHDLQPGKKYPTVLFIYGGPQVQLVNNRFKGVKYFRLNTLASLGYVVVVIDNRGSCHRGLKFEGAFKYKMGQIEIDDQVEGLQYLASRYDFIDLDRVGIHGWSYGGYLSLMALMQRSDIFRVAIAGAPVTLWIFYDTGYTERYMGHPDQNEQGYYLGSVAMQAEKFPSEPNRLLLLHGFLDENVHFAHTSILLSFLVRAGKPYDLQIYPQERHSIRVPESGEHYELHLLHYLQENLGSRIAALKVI

[1] = Oral bioavailability of compound in rats dosed at 2 mg/kg p.o.; assay type: ADME, organism-based; conditions: rat, in vivo
[2] = Plasma clearance of compound in rats dosed at 1 mg/kg i.v.; assay type: ADME, organism-based; parameters: dose 1 mg/kg, route intravenous; conditions: rat, iv
[3] = Half-life of compound in rats dosed at 1 mg/kg i.v.; assay type: ADME, organism-based; parameters: dose 1 mg/kg, route intravenous; conditions: rat, in vivo, iv
Dipeptidyl peptidase 2 = Dipeptidyl peptidase 2 (Homo sapiens, UniProt Q9UHL4); assay: Inhibitory concentration against human dipeptidylpeptidase VII (QPP)

Sequence of Dipeptidyl peptidase 9 (Q86TI2 whole entry): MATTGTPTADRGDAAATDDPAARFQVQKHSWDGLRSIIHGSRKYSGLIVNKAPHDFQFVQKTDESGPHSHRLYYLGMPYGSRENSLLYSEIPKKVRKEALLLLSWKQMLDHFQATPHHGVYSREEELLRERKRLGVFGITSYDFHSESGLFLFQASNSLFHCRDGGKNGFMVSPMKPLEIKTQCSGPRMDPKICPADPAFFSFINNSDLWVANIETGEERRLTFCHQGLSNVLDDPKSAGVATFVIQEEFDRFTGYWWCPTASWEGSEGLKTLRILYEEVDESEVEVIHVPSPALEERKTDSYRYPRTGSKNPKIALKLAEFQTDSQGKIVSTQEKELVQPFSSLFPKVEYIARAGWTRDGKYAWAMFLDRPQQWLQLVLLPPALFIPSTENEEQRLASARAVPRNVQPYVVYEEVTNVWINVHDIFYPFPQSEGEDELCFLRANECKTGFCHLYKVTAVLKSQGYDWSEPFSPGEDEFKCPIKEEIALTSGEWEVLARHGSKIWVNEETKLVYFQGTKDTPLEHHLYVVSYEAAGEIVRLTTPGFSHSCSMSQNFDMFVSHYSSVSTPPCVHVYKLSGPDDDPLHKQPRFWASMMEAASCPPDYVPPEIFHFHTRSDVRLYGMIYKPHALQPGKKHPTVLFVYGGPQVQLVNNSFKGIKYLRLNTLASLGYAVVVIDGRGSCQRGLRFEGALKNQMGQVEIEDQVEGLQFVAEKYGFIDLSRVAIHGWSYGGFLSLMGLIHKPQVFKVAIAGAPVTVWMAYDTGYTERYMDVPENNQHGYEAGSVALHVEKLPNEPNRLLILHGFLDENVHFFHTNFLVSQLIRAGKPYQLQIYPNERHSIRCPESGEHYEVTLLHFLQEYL

## Cn1nc2c(c1C(F)(F)F)CN(C(=O)C[C@H](N)Cc1cc(F)ccc1F)CC2
Dipeptidyl peptidase 9
  pIC50: < 4.00
Dipeptidyl peptidase 8
  pIC50: < 4.00

## N[C@@H](CC(=O)N1CCc2sc(-c3ccc(F)cc3)nc2C1)Cc1cc(F)ccc1F
[1]
  bioavailability: 55%
[2]
  clearance: 91 mL/min/kg
[3]
  half-life: 198 min

## N[C@@H](CC(=O)N1CCc2c(c(C(F)(F)F)nn2CC(F)(F)F)C1)Cc1cc(F)ccc1F
Dipeptidyl peptidase 9
  pIC50: < 4.00

## Cn1nc(-c2ccc(F)cc2)c2c1CCN(C(=O)C[C@H](N)Cc1cc(F)ccc1F)C2
Dipeptidyl peptidase 9
  pIC50: < 4.00

## Cn1nc2c(c1C(F)(F)C(F)(F)F)CN(C(=O)C[C@H](N)Cc1cc(F)ccc1F)CC2
Dipeptidyl peptidase 9
  pIC50: < 4.00
Dipeptidyl peptidase 8
  pIC50: < 4.00

## N[C@@H](CC(=O)N1CCc2nn(CC(F)(F)F)c(C(F)(F)F)c2C1)Cc1cc(F)ccc1F
Dipeptidyl peptidase 9
  pIC50: < 4.00
Dipeptidyl peptidase 8
  pIC50: < 4.00

## N[C@@H](CC(=O)N1CCc2n[nH]c(C(F)(F)C(F)(F)F)c2C1)Cc1cc(F)ccc1F (stereo in doubt; form 1)
Dipeptidyl peptidase 9
  pIC50: < 4.00

## Cn1nc(C(F)(F)F)c2c1CCN(C(=O)C[C@H](N)Cc1cc(F)ccc1F)C2
Dipeptidyl peptidase 9
  pIC50: < 4.00

## CS(=O)(=O)c1ccc(-c2nc3c(s2)CCN(C(=O)C[C@H](N)Cc2cc(F)ccc2F)C3)cc1
[1]
  bioavailability: 20%
[2]
  clearance: 60 mL/min/kg
[3]
  half-life: 90 min

## N[C@@H](CC(=O)N1CCc2oc(C3CC3)nc2C1)Cc1cc(F)ccc1F
Dipeptidyl peptidase 2
  pIC50: < 4.00
Dipeptidyl peptidase 9
  pIC50: < 4.00

## Cn1nc2c(c1-c1ccc(F)cc1)CN(C(=O)C[C@H](N)Cc1cc(F)ccc1F)CC2
Dipeptidyl peptidase 9
  pIC50: < 4.00

## N[C@@H](CC(=O)N1CCc2noc(C(F)(F)F)c2C1)Cc1cc(F)ccc1F
Dipeptidyl peptidase 9
  pIC50: < 4.00
Dipeptidyl peptidase 8
  pIC50: < 4.00

## N[C@@H](CC(=O)N1CCc2n[nH]c(C(F)(F)C(F)(F)F)c2C1)Cc1cc(F)ccc1F (stereo in doubt; form 2)
Dipeptidyl peptidase 9
  pIC50: < 4.00

## Cn1nc2c(c1C(F)(F)F)CCN(C(=O)C[C@H](N)Cc1cc(F)ccc1F)C2
Dipeptidyl peptidase 9
  pIC50: < 4.00

## Cn1nc(C(F)(F)C(F)(F)F)c2c1CCN(C(=O)C[C@H](N)Cc1cc(F)ccc1F)C2
Dipeptidyl peptidase 9
  pIC50: < 4.00

## N[C@@H](CC(=O)N1CCCc2n[nH]c(C(F)(F)F)c21)Cc1cc(F)ccc1F
Dipeptidyl peptidase 9
  pIC50: < 4.00
Dipeptidyl peptidase 8
  pIC50: < 4.00

## N[C@@H](CC(=O)N1CCc2sc(C(F)(F)F)nc2C1)Cc1cc(F)ccc1F
[1]
  bioavailability: 16%
Dipeptidyl peptidase 9
  pIC50: < 4.00
[2]
  clearance: 250 mL/min/kg
[3]
  half-life: 120 min

## N[C@@H](CC(=O)N1CCc2c(noc2C(F)(F)F)C1)Cc1cc(F)ccc1F
Dipeptidyl peptidase 2
  pIC50: < 4.00
